# Test results from patent US7078522B2, “Pyridopyrimidine or naphthyridine derivative” (Tanabe Seiyaku Co., Ltd., priority 2001, dated 2006).
row,Compound,melting point
1,CNC(=O)c1cc2cnc(N3CCC[C@H]3CO)nc2n(Cc2ccc(OC)c(Cl)c2)c1=O,191 to 191.5 °C
2,COc1ccc(Cn2c(=O)c(C(=O)NCc3ncccn3)cc3cnc(N4CCC[C@H]4CO)nc32)cc1Cl,216 to 218 °C
3,COc1ccc(Cn2c(=O)c(C(=O)NCCO)cc3cnc(N4CCC[C@H]4CO)nc32)cc1Cl,207 to 210 °C
4,"COc1ccc(Cn2c(=O)ccc3cnc(N4CCC[C@H]4CO)nc32)cc1Cl [Example 1, (S)-2-(2-Hydroxymethyl-1-pyrrolidinyl)-8-(3-chloro-4-methoxybenzyl)-7,8-dihydro-7-oxo-pyrido[2,3-d]pyrimidine]",142 to 143 °C
5,"COc1ccc(Cn2c(=O)ccc3cnc(OCc4ccccn4)nc32)cc1Cl [Example 2, 2-(2-Pyridylmethoxy)-8-(3-chloro-4-methoxybenzyl)-7,8-dihyro-7-oxo-pyrido[2,3-d]pyrimidine]",130 to 131 °C
6,"Cn1c(=O)ccc2cnc(N3CCC[C@H]3CO)nc21 [Example 3, (S)-2-(2-Hydroxymethyl-1-pyrrolidinyl)-8-N-mehyl-7,8-dihydro-7-oxo-pyrido[2,3-d]pyrimidine]",143 to 144 °C
7,"COc1ccc(Cn2c(=O)ccc3ccc(N4CCC[C@H]4CO)nc32)cc1Cl [Example 10, (S)-2-(2-Hydroxymethyl-1-pyrrolidinyl)-8-(3-chloro-4-methoxybenzyl)-7,8-dihydro-7-oxo-1,8-naphthyridine]",131 to 134 °C
8,"COc1ccc(Cn2c(=O)cc(-c3ccccn3)c3cnc(N4CCC[C@H]4CO)nc32)cc1Cl [Example 12, (S)-2-(2-Hydroxymethyl-1-pyrrolidinyl)-5-(2-pyridyl)-8-(3-chloro-4-methoxybenzyl)-7,8-dihydro-7-oxo-pyrido[2,3-d]pyrimidine]",183.5 to 186.5 °C
9,"COC(=O)c1c(-c2nccn2C)c2cnc(N3CCC[C@H]3CO)nc2n(Cc2ccc(OC)c(Cl)c2)c1=O [Example 13, (S)-2-(2-Hydroxymethyl-1-pyrrolidinyl)-5-(1-methyl-2-imidazolyl)-6-methoxycarbonyl-8-(3-chloro-4-methoxybenzyl)-7,8-dihydro-7-oxo-pyrido[2,3-d]pyrimidine]",142 to 145 °C
10,O=c1ccc2cnc(N3CCC[C@H]3CO)nc2[nH]1 [Example 15],99 to 103 °C
11,COc1ccc(Cn2c(=O)ccc3cnc(N4CCC[C@H]4CO)nc32)cc1 [Example 16],135 to 136 °C
12,COc1ccc(Cn2c(=O)ccc3cnc(N4CCC[C@H]4CO)nc32)cc1OC [Example 17],132 °C
13,O=c1ccc2cnc(N3CCC[C@H]3CO)nc2n1Cc1ccc2c(c1)OCO2 [Example 18],154 to 155 °C
14,O=c1ccc2cnc(N3CCC[C@H]3CO)nc2n1Cc1ncccn1 [Example 19],150 to 151 °C
15,O=c1ccc2cnc(N3CCC[C@H]3CO)nc2n1Cc1ccncc1 [Example 20],143 to 144 °C
16,CN(C)CCn1c(=O)ccc2cnc(N3CCC[C@H]3CO)nc21 [Example 21],102 to 104 °C
17,COC(=O)c1cc2cnc(N3CCCCC3)nc2n(Cc2ccc(OC)c(Cl)c2)c1=O [Example 22],201 to 203 °C
18,COc1ccc(Cn2c(=O)ccc3cnc(N4CCc5ccccc5C4)nc32)cc1Cl [Example 23],167 to 168 °C
19,COc1ccc(Cn2c(=O)ccc3cnc(SC)nc32)cc1Cl [Example 24],189 to 190 °C
20,COc1ccc(Cn2c(=O)ccc3cnc(NCc4ncccn4)nc32)cc1Cl [Example 25],172 to 173 °C
21,COc1ccc(Cn2c(=O)ccc3cnc(N4CCC[C@@H]4CO)nc32)cc1Cl [Example 26],139 to 141 °C
22,COc1ccc(Cn2c(=O)ccc3cnc(N4CCOC(CO)C4)nc32)cc1Cl (stereo not shown) [Example 27],207 to 209 °C
23,COc1ccc(Cn2c(=O)ccc3cnc(N4CCNCC4)nc32)cc1Cl [Example 28],169.5 to 170 °C
24,COc1ccc(Cn2c(=O)ccc3cnc(N4CCc5cncnc5C4)nc32)cc1Cl [Example 29],200 to 201 °C
25,COc1ccc(Cn2c(=O)ccc3cnc(N)nc32)cc1Cl [Example 31],234 to 242 °C
26,COc1ccc(Cn2c(=O)ccc3cnc(N4CCn5ccnc5C4)nc32)cc1Cl [Example 32],158 to 159 °C
27,COc1ccc(Cn2c(=O)c(C(=O)O)cc3cnc(N4CCC[C@H]4CO)nc32)cc1Cl [Example 33],258 to 264 °C
28,COC(=O)c1cc2cnc(N3CCC[C@H]3CO)nc2n(Cc2ccccn2)c1=O [Example 42],199 to 201 °C
